Tests used:
Human NK1 Receptor = target: T1, Human NK1 Receptor (Homo sapiens, UniProt P25103); test: In Vitro Human NK1 Receptor Binding Assay ([125I]Bolton-Hunter substance P displacement, IM9 cells); settings: Human lymphoma IM9 cells, [125I]Bolton-Hunter substance P (0.05-0.1 nM), 50 min at 21° C.; Table 1; read-out: NK1 binding IC50
T1 construct: endogenous in cells; host or cells: Human lymphoma IM9 cells (whole cells)
Method in brief: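 Radioligand displacement on whole IM9 human lymphoma cells (2.5×10^6 cells/mL) using [125I]Bolton-Hunter substance P (0.05-0.1 nM), 50 min at 21° C in Tris pH 7.4/MnCl2 buffer with protease inhibitors. Non-specific binding defined by […] [Sar9, Met(O2)11] substance P. Filtration, gamma counting, iterative curve fitting.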

T1 sequence (P25103 whole entry): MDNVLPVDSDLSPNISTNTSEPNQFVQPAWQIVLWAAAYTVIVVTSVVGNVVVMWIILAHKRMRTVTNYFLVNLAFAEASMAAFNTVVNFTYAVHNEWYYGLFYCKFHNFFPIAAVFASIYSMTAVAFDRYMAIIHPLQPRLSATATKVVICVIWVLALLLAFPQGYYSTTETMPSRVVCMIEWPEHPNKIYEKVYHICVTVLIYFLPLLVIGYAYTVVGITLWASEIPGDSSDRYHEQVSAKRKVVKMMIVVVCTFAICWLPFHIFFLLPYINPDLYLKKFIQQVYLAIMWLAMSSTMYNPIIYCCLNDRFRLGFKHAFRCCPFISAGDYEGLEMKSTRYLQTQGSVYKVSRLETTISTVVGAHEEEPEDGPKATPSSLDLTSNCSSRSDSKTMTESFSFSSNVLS

Compound `C[C@H](NC(=O)[C@@](C)(Cc1c[nH]c2ccccc12)NCc1ccc[nH]1)c1ccccc1` (relative stereo) [Example 20, 3-(1H-Indol-3-yl)-2-methyl-N-(1-phenyl-ethyl)-2-[(1H-pyrrol-2-ylmethyl)-amino]-propionamide, (R-(R*,S*)]] has a melting point of 123 to 133 °C and an IC50 (Human NK1 Receptor) of 815 nM.
